Assay results as given in ChEMBL document CHEMBL1201862, “PubChem BioAssay data set” (2004).
Activity calls are given as the source filed them.

How the values were obtained:
[1] = Dd2 parasite growth inhibition in erythrocytes – SYBR Green, dry powder samples, set 9, dose response (AID 1159568); type: functional, cell-based
[2] = P. falciparum Dd2 growth inhibitors, dose response, SYBR Green, cherry-picked samples (AID 1159567); type: functional, cell-based
[3] = target: Glutathione-S-transferase (Schistosoma japonicum, UniProt Q26513); experiment: GST-antibody interaction or FRET quenching – biochemical, TR-FRET, artefact control for Vif-APOBEC3G degradation inhibitor project, dose response (AID 1117362); type: functional
[4] = target: T1, Voltage-gated N-type calcium channel alpha-1B subunit/Amyloid beta A4 precursor protein-binding family A member 1 (Homo sapiens, UniProt Q00975+Q02410); type: protein assay
[5] = target: Bifunctional protein GlmU (Mycobacterium tuberculosis, UniProt P9WMN3); experiment: Inhibitors of Mycobacterial Glucosamine-1-phosphate acetyl transferase (GlmU). Secondary screen.; design: species or system Mycobacterium tuberculosis H37Rv
[6] = target: T1, Voltage-gated N-type calcium channel alpha-1B subunit/Amyloid beta A4 precursor protein-binding family A member 1; type: protein assay; remark: listed apart in the source
[7] = target: Sphingosine 1-phosphate receptor 2 (Homo sapiens, UniProt O95136); experiment: Dose Response Cell Based Assay for Agonists of the S1P2 Receptor. [Related pubchem assays: 729, 736, 843 ]; type: functional
[8] = target: Heat shock protein HSP 90-alpha (Homo sapiens, UniProt P07900); experiment: Luminescence-based dose response biochemical high throughput screening assay for inhibitors of the Heat Shock Protein 90 (HSP90). [Related pubchem assays: 1831 (Summary AID.), 1846 (Confirmation screen.), 1789 (Primary screen.)]
[9] = inhibitors of TRPM1-promoter reporter in SK-MEL-5 – cell-based, luciferase, dry powder, set 9, MITF inhibitor project, dose response (AID 651588); type: functional
[10] = THP-1 cell cytotoxicity, dose response, cytotoxicity control for non-replicating M. tuberculosis project (AID 489025); type: functional
[11] = HepG2 cell cytotoxicity, dose response, cytotoxicity control for non-replicating M. tuberculosis project (AID 489018); type: functional; settings: Mycobacterium tuberculosis
[12] = cytotoxicity in melanoma parental cells – cell-based, CellTiter-Glo, dry powder, set 6, MITF inhibitor project, dose response (AID 624429); type: functional; settings: SK-MEL-5
[13] = viability of HCT116 lacking mutant beta-catenin – cell-based, human colon tumor, dose response (AID 1045); type: functional;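 note: HCT116 colon tumor cells with beta catenin knocked out; cells exposed to compound for 60 hours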
[14] = viability loss in MITF-independent A375 cells – cell-based, CellTiter-Glo luminescence, dry powder, set 7, counter-screen for MITF inhibitor project, dose response (AID 624490); type: functional; settings: A-375
[15] = MITF Measured in Cell-Based System Using Plate Reader - 2084-01_Inhibitor_Dose_DryPowder_Activity_Set7.; type: functional
[16] = growth inhibition of SK-MEL-5 melanoma cells – cell-based, CellTiter-Glo luminescence, dry powder, set 8, orthogonal assay for MITF inhibitor project, dose response (AID 651586); type: functional
[17] = Vero E6 cell cytotoxicity, dose response, cytotoxicity control for non-replicating M. tuberculosis project, secondary assay (AID 492998); type: functional, VeroE6; settings: Vero C1008
[18] = cells; type: functional
[19] = viability loss in MITF-independent A375 cells – cell-based, CellTiter-Glo luminescence, dry powder, set 6, counter-screen for MITF inhibitor project, dose response (AID 624488); type: functional; settings: A-375
[20] = target: T2, Streptokinase A (Streptococcus pyogenes serotype M1, UniProt P10520); experiment: viability-normalized secreted streptokinase activity reduction – plasminogen activation absorbance, OD405, dose response (AID 1914); type: functional, Streptococcus pyogenes M1 GAS;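 note: secreted streptokinase activity via plasminogen activation per viability signal from cell pellet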
T2 sequence (P10520 whole entry): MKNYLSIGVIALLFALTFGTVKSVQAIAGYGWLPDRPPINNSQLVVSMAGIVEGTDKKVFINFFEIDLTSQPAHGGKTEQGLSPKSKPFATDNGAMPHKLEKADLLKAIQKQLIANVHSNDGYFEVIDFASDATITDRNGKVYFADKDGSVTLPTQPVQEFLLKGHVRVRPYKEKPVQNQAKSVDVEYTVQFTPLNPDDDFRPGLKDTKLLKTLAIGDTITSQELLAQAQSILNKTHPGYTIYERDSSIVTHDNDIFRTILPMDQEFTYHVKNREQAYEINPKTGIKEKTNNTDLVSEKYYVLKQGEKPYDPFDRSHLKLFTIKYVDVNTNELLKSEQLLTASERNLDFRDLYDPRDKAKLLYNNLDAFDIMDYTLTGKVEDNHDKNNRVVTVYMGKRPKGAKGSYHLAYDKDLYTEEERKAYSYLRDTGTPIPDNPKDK

[21] = growth inhibition of MALME3 cells – cell-based, CellTiter-Glo luminescence, dry powder, set 5, orthogonal assay for MITF inhibitor project, dose response (AID 651584); type: functional; settings: MALME-3
[22] = target: T3, Microphthalmia-associated transcription factor (Homo sapiens, UniProt O75030); experiment: reducers of TRPM1 reporter luminescence, concentration series – cell-based, SK-MEL-5, cherry-picked, set 3, MITF inhibitor project, dose response (AID 493073); type: functional;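 note: SK-MEL-5 melanoma cells with luciferase driven by the MITF target TRPM1 promoter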
T3 sequence (O75030 whole entry): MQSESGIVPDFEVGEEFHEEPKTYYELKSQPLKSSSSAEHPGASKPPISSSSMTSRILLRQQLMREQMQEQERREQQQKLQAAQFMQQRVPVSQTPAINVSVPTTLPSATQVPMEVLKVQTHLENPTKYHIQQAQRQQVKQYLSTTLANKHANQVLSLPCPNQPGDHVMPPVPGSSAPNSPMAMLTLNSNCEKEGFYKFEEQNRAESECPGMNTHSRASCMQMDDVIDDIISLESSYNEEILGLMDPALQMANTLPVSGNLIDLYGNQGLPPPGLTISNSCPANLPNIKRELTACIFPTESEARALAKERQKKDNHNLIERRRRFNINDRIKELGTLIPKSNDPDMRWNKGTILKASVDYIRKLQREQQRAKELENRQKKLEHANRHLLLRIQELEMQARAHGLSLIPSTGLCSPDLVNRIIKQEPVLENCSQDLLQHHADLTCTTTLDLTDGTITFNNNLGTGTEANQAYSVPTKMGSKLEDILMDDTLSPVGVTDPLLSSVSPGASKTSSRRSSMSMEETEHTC

[23] = cytotoxicity in MITF-independent A375 cells – cell-based, CellTiter-Glo luminescence, dry powder, set 9, counter-screen for MITF modulator project, dose response (AID 651591); type: functional; settings: A-375
[24] = MITF Orthogonal Assay: SK-MEL-5 CTG Assay Measured in Cell-Based System Using Plate Reader - 2084-02_Inhibitor_Dose_DryPowder_Activity_Set5.; type: functional
[25] = system: Streptococcus; experiment: GAS UMAA2166 growth inhibition – luminescence, BacTiterGlo, counter-screen for streptokinase expression inhibitor project, dose response (AID 1915); type: functional, organism-based;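 note: potency for reduction of bacterial viability or growth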
[26] = MITF Orthogonal Assay: MALME3 CTG Assay Measured in Cell-Based System Using Plate Reader - 2084-04_Inhibitor_Dose_DryPowder_Activity_Set6.; type: functional; settings: MALME-3
[27] = viability loss in MITF-independent A375 cells – cell-based, CellTiter-Glo luminescence, dry powder, set 2, counter-screen for MITF inhibitor project, dose response (AID 624489); type: functional; settings: A-375;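 note: actives are compounds lowering A375 viability meaning general cytotoxicity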
[28] = system: Streptococcus sp. 'group A'; experiment: Streptococcus pyogenes SK(-)GAS viability under kanamycin – luminescence, BacTiterGlo, confirmation, counter-screen for streptokinase expression inhibitor project, dose response (AID 1900); type: functional, organism-based
[29] = MITF Measured in Cell-Based System Using Plate Reader - 2084-01_Inhibitor_Dose_DryPowder_Activity_Set6.; type: functional
[30] = system: INS1; experiment: INS-1E survival protection against cytokine death – cell-based, luminescence, retest, dose response (AID 449756); type: functional; settings: Rattus norvegicus;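 note: cell death triggered by IL-1 beta plus TNF-alpha plus IFN-gamma mixture; protective hits raise ATP signal compared with cytokine alone wells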
[31] = viability of PTEN-deleted HCT116 cells – cell-based, HCT116 PTEN knockout, dose response (AID 1047); type: functional;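 note: HCT116 colon tumor cells with PTEN knocked out; cells exposed to compound for 60 hours before readout; potency for loss of cell viability measured by luminescence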
[32] = cytotoxicity in MITF-independent A375 cells – cell-based, CellTiter-Glo luminescence, dry powder, set 4, counter-screen for MITF inhibitor project, dose response (AID 624364); type: functional; settings: A-375;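 note: A375 melanoma cells are MITF independent so this is a counter screen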

T1 sequence (Q00975 whole entry): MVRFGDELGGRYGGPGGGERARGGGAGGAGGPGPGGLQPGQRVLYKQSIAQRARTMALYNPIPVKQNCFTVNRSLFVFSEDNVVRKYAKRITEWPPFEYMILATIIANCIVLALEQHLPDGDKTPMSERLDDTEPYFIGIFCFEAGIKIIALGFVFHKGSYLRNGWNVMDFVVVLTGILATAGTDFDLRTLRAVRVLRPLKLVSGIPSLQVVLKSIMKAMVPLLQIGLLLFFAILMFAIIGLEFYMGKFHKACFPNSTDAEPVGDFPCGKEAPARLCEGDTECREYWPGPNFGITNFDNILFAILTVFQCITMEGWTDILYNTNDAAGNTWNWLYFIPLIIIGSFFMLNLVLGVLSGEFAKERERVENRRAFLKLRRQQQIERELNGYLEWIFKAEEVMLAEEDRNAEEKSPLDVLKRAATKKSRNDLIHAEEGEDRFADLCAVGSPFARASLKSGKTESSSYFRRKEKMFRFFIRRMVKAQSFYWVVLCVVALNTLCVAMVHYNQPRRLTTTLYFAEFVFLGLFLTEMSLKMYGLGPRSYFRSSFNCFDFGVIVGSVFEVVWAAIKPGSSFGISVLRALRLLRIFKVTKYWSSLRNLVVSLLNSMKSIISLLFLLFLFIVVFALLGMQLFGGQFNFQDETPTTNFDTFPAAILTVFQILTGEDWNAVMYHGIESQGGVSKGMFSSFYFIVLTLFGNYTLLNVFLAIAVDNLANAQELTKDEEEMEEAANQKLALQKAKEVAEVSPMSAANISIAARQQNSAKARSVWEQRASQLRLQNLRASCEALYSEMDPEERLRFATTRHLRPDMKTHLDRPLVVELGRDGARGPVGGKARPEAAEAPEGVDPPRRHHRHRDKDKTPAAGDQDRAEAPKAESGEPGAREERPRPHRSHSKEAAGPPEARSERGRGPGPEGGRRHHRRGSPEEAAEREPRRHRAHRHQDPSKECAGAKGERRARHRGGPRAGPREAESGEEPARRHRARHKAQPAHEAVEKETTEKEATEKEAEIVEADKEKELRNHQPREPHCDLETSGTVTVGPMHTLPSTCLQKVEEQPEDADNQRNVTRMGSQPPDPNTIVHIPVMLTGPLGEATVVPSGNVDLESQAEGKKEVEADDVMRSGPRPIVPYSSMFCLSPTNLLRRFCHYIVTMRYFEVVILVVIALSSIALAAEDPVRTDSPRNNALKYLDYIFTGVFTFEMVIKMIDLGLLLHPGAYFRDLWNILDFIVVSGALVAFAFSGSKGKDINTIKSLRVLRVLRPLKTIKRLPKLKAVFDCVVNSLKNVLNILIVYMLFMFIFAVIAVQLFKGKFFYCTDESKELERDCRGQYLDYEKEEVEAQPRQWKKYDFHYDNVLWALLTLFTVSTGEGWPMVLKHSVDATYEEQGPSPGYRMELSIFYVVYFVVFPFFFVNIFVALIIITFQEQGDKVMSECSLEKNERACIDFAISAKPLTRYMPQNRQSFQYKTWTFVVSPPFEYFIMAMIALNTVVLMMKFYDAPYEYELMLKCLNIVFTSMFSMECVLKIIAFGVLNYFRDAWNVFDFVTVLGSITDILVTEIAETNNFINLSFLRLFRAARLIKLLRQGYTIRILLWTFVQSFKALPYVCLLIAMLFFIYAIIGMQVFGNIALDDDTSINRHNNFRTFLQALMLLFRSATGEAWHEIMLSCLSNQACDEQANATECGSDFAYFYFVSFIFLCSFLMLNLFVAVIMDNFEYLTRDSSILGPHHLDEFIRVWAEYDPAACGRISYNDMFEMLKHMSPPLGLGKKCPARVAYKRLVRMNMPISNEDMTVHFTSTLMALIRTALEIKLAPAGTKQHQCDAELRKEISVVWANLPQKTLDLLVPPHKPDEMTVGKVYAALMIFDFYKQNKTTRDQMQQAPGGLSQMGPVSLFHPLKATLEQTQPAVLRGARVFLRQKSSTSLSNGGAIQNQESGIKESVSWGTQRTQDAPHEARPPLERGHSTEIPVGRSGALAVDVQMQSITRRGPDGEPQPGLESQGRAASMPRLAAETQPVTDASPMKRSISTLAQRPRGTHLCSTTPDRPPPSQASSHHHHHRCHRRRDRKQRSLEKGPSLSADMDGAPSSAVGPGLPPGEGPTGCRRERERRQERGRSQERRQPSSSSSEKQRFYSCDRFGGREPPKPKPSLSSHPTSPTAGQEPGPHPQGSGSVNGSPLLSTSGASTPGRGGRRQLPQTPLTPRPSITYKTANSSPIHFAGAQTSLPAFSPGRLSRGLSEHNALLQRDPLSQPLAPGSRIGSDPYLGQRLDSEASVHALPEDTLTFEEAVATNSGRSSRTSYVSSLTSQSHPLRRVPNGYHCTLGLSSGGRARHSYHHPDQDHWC
T1 sequence (Q02410 whole entry): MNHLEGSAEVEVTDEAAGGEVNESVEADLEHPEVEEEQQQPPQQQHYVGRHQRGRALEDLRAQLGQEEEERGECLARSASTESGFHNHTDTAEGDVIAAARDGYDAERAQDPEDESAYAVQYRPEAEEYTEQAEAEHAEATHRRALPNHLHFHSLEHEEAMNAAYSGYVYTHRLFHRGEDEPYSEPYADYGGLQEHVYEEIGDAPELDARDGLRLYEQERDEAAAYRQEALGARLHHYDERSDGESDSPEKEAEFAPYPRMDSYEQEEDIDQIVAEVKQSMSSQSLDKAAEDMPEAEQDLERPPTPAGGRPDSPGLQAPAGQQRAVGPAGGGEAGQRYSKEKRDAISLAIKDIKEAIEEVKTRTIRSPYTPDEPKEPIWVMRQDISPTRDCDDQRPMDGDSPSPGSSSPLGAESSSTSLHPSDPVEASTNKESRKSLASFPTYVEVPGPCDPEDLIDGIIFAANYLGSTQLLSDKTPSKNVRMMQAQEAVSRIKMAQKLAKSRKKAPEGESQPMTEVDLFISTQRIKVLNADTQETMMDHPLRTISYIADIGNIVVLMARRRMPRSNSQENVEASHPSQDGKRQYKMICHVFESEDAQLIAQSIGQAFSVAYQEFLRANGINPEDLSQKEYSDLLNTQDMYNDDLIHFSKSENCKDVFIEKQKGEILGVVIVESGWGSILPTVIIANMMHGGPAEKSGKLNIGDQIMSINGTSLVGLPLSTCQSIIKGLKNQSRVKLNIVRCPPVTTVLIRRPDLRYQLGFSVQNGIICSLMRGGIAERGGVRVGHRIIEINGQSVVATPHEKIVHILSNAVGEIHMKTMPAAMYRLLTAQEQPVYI
Sphingosine 1-phosphate receptor 2, sequence (O95136 whole entry): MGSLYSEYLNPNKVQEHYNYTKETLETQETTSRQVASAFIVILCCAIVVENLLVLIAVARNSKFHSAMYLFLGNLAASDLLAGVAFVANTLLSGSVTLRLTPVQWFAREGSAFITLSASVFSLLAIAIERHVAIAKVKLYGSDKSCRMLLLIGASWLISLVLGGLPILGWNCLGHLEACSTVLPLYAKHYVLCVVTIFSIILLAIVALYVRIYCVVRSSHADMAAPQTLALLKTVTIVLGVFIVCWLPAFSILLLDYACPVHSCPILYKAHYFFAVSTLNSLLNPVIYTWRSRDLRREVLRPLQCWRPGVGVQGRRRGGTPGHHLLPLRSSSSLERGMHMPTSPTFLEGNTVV
Glutathione-S-transferase, sequence (Q26513 whole entry): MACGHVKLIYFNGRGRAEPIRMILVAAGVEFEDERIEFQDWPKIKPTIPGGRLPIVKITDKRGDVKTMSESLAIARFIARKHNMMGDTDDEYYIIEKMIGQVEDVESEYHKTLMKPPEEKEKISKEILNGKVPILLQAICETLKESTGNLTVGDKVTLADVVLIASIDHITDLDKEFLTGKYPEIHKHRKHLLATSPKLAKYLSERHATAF
Bifunctional protein GlmU, sequence (P9WMN3 whole entry): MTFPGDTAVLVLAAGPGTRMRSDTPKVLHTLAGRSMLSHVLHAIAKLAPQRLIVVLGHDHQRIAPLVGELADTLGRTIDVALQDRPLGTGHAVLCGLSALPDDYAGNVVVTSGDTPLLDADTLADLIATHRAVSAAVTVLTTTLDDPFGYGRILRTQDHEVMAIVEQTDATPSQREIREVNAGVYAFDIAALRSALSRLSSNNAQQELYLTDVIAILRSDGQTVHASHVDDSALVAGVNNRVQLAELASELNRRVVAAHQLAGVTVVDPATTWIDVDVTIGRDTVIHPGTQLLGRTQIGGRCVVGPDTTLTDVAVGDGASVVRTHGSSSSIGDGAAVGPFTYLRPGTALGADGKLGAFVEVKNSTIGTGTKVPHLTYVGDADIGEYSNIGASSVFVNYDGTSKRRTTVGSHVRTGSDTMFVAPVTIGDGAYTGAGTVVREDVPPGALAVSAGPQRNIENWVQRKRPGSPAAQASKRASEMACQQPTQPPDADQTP

Structure (SMILES): CN1C(=O)c2cc(NC(=O)c3cccc(F)c3)ccc2OC[C@H]2O[C@H](CC(=O)NCC3CCCCC3)CC[C@H]21
- AC50 [1]: 8.12 µM (active)
- AC50 [2]: 8.99 µM (active)

Structure (SMILES): O=[N+]([O-])c1ccc(-c2ccc(/C=N/c3c(-c4ccco4)nc4ccccn34)o2)cc1
- IC50 [3]: 50.3 µM (active)

Structure (SMILES): N=C1/C(=C\c2ccc(-c3ccc(C(=O)O)cc3)o2)C(=O)N=C2SC=C(c3ccccc3)N12
- IC50 [4]: 29.2 µM (active)
- IC50 [5]: 182 µM (active)
- IC50 [6]: 4.12 µM (active)

Structure (SMILES): O=C(CCC(=O)N1CCc2ccccc21)Nc1ccccc1
- EC50 [7]: > 50 µM (not active)

Structure (SMILES): CC(=O)Oc1ccc(Nc2ccccc2)cc1
- IC50 [8]: 6.62 µM (active)

Structure (SMILES): Cc1nc2ccccc2n1/N=C/c1ccc([N+](=O)[O-])s1
- AC50 [9]: 7.21 µM (active)
- CC50 [10]: 5.13 µM (active)
- CC50 [11]: 12.4 µM (active)
- AC50 [12]: 10.7 µM (active)
- EC50 [13]: 2.47 µM (active)
- AC50 [14]: > 70 µM (inactive)
- AC50 [15]: 1.1 µM (active)
- AC50 [16]: > 70 µM (inactive)
- CC50 [17]: 9.87 µM (active)
- IC50 [18]: 0.43 µM (active)
- AC50 [19]: 47.3 µM (active)
- EC50 [20]: > 150 µM (not active)
- AC50 [21]: 22.9 µM (active)
- AC50 [22]: 3.51 µM (active)
- AC50 [23]: > 70 µM (inactive)
- AC50 [24]: 6.24 µM (active)
- EC50 [25]: 10.7 µM (active)
- AC50 [26]: 22.9 µM (active)
- AC50 [27]: > 70 µM (inactive)
- EC50 [28]: 3.63 µM (active)
- AC50 [29]: 2.52 µM (active)
- AC50 [30]: 2.01 µM (active)
- EC50 [31]: 3.72 µM (active)
- AC50 [32]: > 70 µM (inactive)
